Reference: patent US5466829A, “Ginkgolide derivatives and a process for preparing them” (priority 1991, dated 1995)
Read-outs that look alike come from different tables or passages of the source.

Test system: Platelet Activating Factor induced platelet aggregation
Assay: Platelet aggregation inhibiting effect of rabbit by PAF (platelet rich plasma, Chrono-log aggregometer)
Assay type: cell-based, New Zealand White Rabbit
Conditions: for IC50: read-out: IC50, 50% of the inhibition concentration, platelet aggregation inhibiting effect; for platelet aggregation inhibiting activity compared with Ginkgolide B: rabbit PRP, PAF-induced, comparison in words
Procedure: The blood gathering in the ear artery of the New Zealand White Rabbit of weight 3~3.5 kg was mixed with 3.8% sodium citrate solution at the ratio of 1:9. After centrifuging for 10 minutes at 1000 rpm, the upper Platelet Rich Plasma(PRP) layer was taken. Again after centrifuging for 10 minutes at 3000 rpm, the upper Platelet Poor Plasma(PPP) was taken.
After measuring the platelet figures of the PRP using the Coulter counter, the platelet figures was adjusted to 3×10^5 /μl by diluting with PPP.
The ginkgolide derivatives which were obtained from the above example 1 and 5~9 was investigated platelet aggregation inhibiting effect by that 270 μl of PRP and 30 μl of the derivative solution was treated using the Chrono-log aggregometer which the light tansmittance of PPP was fixed to 100% and the light tansmittance of PRP was fixed to 0% and then 30 μl of Platelet Activating Factor of 5×10^-9 M and 5×10^-8 M concentration was added.
Then, IC50, 50% of the inhibition concentration, of derivatives was searched.

[1] = rabbit PRP adjusted to 3×10^5 /μl platelets, aggregation induced by PAF of 5×10^-9 M and 5×10^-8 M
[2] = Oryctolagus cuniculus, Platelet
[3] = Oryctolagus cuniculus, Platelet, rabbit PRP adjusted to 3×10^5 /μl platelets, aggregation induced by PAF of 5×10^-9 M and 5×10^-8 M

| Compound | IC50 [1] [nM] | platelet aggregation inhibiting activity compared with Ginkgolide B | IC50 [2] [nM] | IC50 [3] [nM] |
| --- | --- | --- | --- | --- |
| 3-dehydroxy- 1,10-methylenedioxy-Ginkgolide B [formula (IV)] | 4950 | low than the Ginkgolide B in its activity |  |  |
| 3-dihydroxy-1,10-methylenedioxy-14-epi-Ginkgolide B [formula (III)] | 6980 | low than the Ginkgolide B in its activity |  |  |
| C[C@@H]1C(=O)O[C@H]2C[C@@]34[C@H]5C[C@@H](C(C)(C)C)[C@]36[C@@H](OC(=O)[C@@H]6O)O[C@@]4(C(=O)O5)[C@]21O [Ginkgolide A, reference compound] |  |  | 1750 |  |
| CC1C(=O)OC2C(O)C34C5CC(C(C)(C)C)C36C(OC(=O)C6O)OC4(C(=O)O5)C12O (centres unmarked) [Ginkgolide B, reference compound] |  |  |  | 427 |
| C[C@@H]1C(=O)OC2C1C13OC4OC(=O)C(O)C45C(C(C)(C)C)CC(OC1=O)C35C2O (some centres unmarked) [formula (I-a), 3-dehydroxy-Ginkgolide B] |  | low than the Ginkgolide B in its activity | 2640 |  |
| C[C@H]1C(=O)OC2C1C13OC4OC(=O)C(O)C45C(C(C)(C)C)CC(OC1=O)C35C2O (stereo partly drawn) [formula (I-b), 3-dehydroxy-14-epi-Ginkgolide B] |  |  | 13000 |  |
| C[C@@H]1C(=O)OC2C3OCOC4C(=O)OC5OC6(C(=O)OC7CC(C(C)(C)C)C54C736)C21O (some centres unmarked) [formula (II), 1,10-methylenedioxy-Ginkgolide B] |  | low than the Ginkgolide B in its activity |  | 1050 |
